Laboratory results taken from patent US20060004086A1, “Method of reducing Abeta42 and treating diseases” (Mayo Foundation for Medical Education and Research, priority 2000, published 2006).
Entries after “also recorded” stand apart in the source; their conditions may differ. Read-outs that look alike come from different tables or passages of the source.

How the values were obtained:
[1] = test system: Aβ42 secretion; assay: Primary in vitro screen, CHO-APP695NL,I,his cells, end-specific Aβ40 and Aβ42 ELISAs; assay type: cell-based, Chinese hamster; settings: for activity at 100 µM / activity at 10 µM: Cricetulus griseus, 6 h
Procedure: Aβ40 and Aβ42 levels in culture supernatants were determined for each time points using ELISA.
In a primary screen, the effects of NSAIDs on Aβ42 secretion by a CHO cell line that expressed APP(CHO-APP695NL,I,his) were examined. Duplicate cell cultures were treated with (a) a vehicle, (b) 10 μM of NSAID, or (c) 100 μM of NSAID.
To determine Aβ40 and Aβ42 levels, six-hour culture supernatants taken from cells grown in a single well of a twenty-four-well plate were used in end-specific Aβ40 and Aβ42 ELISAs (Suzuki, et al. (1994) Sci 264:[…]). Aβ40 and Aβ42 levels of cultures treated with NSAID were compared with those of cultures treated with the vehicle alone. […] NSAIDs that caused either selective reduction of Aβ42 levels or reduction in both Aβ40 and Aβ42 levels are subjected to a secondary screen.

[2] = test system: Aβ42 secretion; assay: Aβ40/Aβ42 ELISA of culture supernatants, CHO cells expressing APP751; assay type: cell-based, Chinese hamster; settings: CHO cells expressing APP751; concentrations up to 400 μM
Procedure: Cell cultures were maintained in standard cell culture media supplemented with 10% fetal bovine serum and 100 U/mL penicillin/streptomycin (Life Technologies Inc., Germany).
For analyses of Aβ secretion, APP processing, and notch cleavage, cells were cultured in serum-containing media and pretreated overnight with a specific NSAID. The next day, media were changed and cultures were treated with the same NSAID for another 24 hours.
Aβ was detected by sandwich enzyme-linked immunosorbent assay (ELISA) as described by Murphy et al. (2000) J Biol Chem 275:26277-84. Following NSAID treatment, culture supernatants were collected, and cell debris was removed by centrifugation. Complete protease inhibitor cocktail (Roche Molecular Biochemicals, IN, USA) was added to the media and Aβ40 and Aβ42 levels were quantified using end-specific Aβ ELISAs. All measurements were performed in duplicate.
The effect of sulindac sulfone on Aβ42 secretion was examined. Sulindac sulfone is an oxidation product of the pro-drug sulindac. […] Cell cultures were treated with increasing concentrations of sulindac sulfone. Aβ40 and Aβ42 levels in culture supernatants were analyzed using ELISA.
Aβ40 and Aβ42 levels in cell culture supernatants were analyzed using ELISA. Aβ42/Aβ40 ratios and total Aβ levels were normalized to values obtained from DMSO-treated cultures. […] NSAIDs were verified using NMR and mass spectrometry.

[3] = plasma concentration of the drug; cited from earlier work
[4] = test system: Aβ42 production; assay: Aβ42 production in APP695-transfected H4 cells; assay type: cell-based, human
Procedure: In a tertiary screen, Aβ production, sAPP production, and toxicity in a human H4 neuroglioma cell line that expressed APP are examined for all FDA-approved NSAIDs and novel NSAIDs that selectively reduce Aβ42 levels. Three doses of each NSAID are tested. The first is a dose that is expected to cause maximum reduction of Aβ42 levels. The second dose is one that reduces Aβ42 levels by 50% of the maximum value, while the third dose is one that reduces Aβ42 levels by 10-20% of the maximum value.

[5] = test system: brain Aβ42 levels in Tg2576 mice; assay: Acute oral dosing of three-month-old Tg2576 mice, brain Aβ ELISA; assay type: in vivo, mouse; settings: three-month old Tg2576 mice; 100 mg/kg/day orally for three days; compared with vehicle; 100 mg/kg/day
Procedure: NSAIDs were dissolved in an appropriate vehicle. Dimethyl sulfoxide (DMSO), ethanol, and ethyl acetate are some examples. The NSAID solution was mixed with Kool-Aid and administered orally using a medicine dropper. […] At two hours after the final doses were administered, animals were sacrificed, and SDS soluble Aβ40 and Aβ42 were analyzed using ELISA.
Three month old mice have high levels of soluble Aβ in the brain but no Aβ deposition (see Hsiao et al. (1996) Science 274:99-102). […] Brain levels of SDS-soluble Aβ40 and Aβ42 were measured using ELISA.
Compounds were administered orally.

[6] = six-hour culture supernatants, read-out: % Control % Aβ42
[7] = six-hour culture supernatants, read-out: % Control Aβ40
[8] = six-hour culture supernatants, read-out: % Control Aβ42
[9] = 10 μM, six-hour culture supernatants

| SMILES | activity at 100 µM [1, 6] [%] | activity at 100 µM [1, 7] [%] | activity at 100 µM [1, 8] [%] | further results |
| --- | --- | --- | --- | --- |
| CC(C(=O)O)c1ccc(C(=O)c2cccs2)cc1 (stereo not drawn) [Suprofen] | 102 | 126 | 129 | – |
| CC(C(=O)O)c1cccc(Oc2ccccc2)c1 (stereo not drawn) [Fenoprofen, fenoprofen] | 63 | 102 | 60 | – |
| COc1ccc2cc(CCC(C)=O)ccc2c1 [Nabumetone] | 70 | 157 | 103 | – |
| CCCCC#CCSc1ccccc1OC(C)=O [APHS] | – | – | – | % Control % Aβ42 [1, 9]: 178%; % Control Aβ40 [1, 9]: 50%; % Control Aβ42 [1, 9]: 114% |
| COc1ccc(-n2nc(C(F)(F)F)cc2-c2ccc(Cl)cc2)cc1 [SC560] | – | – | – | activity at 10 µM ([1]; read-out: % Control % Aβ42): 227%; activity at 10 µM ([1]; read-out: % Control Aβ40): 47%; activity at 10 µM ([1]; read-out: % Control Aβ42): 166% |
| CCc1cccc2c3c([nH]c12)C(CC)(CC(=O)O)OCC3 (stereo not drawn) [Etodolac] | 120 | 85 | 109 | – |
| CC(C(=O)O)c1ccc(N2Cc3ccccc3C2=O)cc1 (stereo not drawn) [Indoprofen] | 107 | 116 | 126 | – |
| COc1ccc2cc([C@H](C)C(=O)O)ccc2c1 [Naproxen, naproxen] | 104 | 107 | 112 | total Aβ levels [2]: did not affect total Aβ levels |
| CN1C(C(=O)Nc2ccccn2)=C(O)c2sccc2S1(=O)=O [Tenoxicam] | 112 | 80 | 92 | – |
| Cc1cnc(NC(=O)C2=C(O)c3ccccc3S(=O)(=O)N2C)s1 [Meloxicam] | – | – | – | Plasma [3]: 15 µM; activity at 10 µM ([1]; 10 μM, six-hour culture supernatants, read-out: % Control % Aβ42): 158%; activity at 10 µM ([1]; 10 μM, six-hour culture supernatants, read-out: % Control Aβ40): 64%; activity at 10 µM ([1]; 10 μM, six-hour culture supernatants, read-out: % Control Aβ42): 122% |
| CN(C)CCCOc1nn(Cc2ccccc2)c2ccccc12 [Benzydamine] | 132 | 90 | 128 | – |
| COc1ccc2c(c1)c(CC(=O)OCC(=O)O)c(C)n2C(=O)c1ccc(Cl)cc1 [Acemetacin] | 93 | 110 | 101 | – |
| CC(C(=O)O)c1cccc(C(=O)c2ccccc2)c1 (stereo not drawn) [Ketoprofen] | 117 | 88 | 107 | – |
| C[C@@H](C(=O)O)c1ccc(-c2ccccc2)c(F)c1 [R-flurbiprofen, (2R)-2-(2-Fluoro-1,1′-biphenyl-4-yl)propanoic acid] | – | – | – | levels of Aβ40 production [4]: not altered; Aβ42 levels lowered by ([4]; 10 μM): 20%; Aβ42 levels lowered by ([4]; 100 μM): 49%; brain Aβ42 levels [5]: more effective at lowering brain Aβ42 in this acute dosing paradigm than S-flurbiprofen; also recorded: lower Aβ42 levels |
| Cc1ccc(C(C)C)cc2c(C)ccc1-2 [Guaiazulene] | 156 | 70 | 124 | – |
| CC(C(=O)O)c1ccc2c(c1)[nH]c1ccc(Cl)cc12 (stereo not drawn) [Carprofen] | 86 | 58 | 48 | – |
